Tests used:
panel of 442 kinases [1] = target: T1, panel of 442 kinases (Homo sapiens, UniProt Q13546); assay type: binding; conditions: Compound Concentration 10 µM
T1 construct: purchased KINOMEscan
T1 sequence (Q13546 1-671): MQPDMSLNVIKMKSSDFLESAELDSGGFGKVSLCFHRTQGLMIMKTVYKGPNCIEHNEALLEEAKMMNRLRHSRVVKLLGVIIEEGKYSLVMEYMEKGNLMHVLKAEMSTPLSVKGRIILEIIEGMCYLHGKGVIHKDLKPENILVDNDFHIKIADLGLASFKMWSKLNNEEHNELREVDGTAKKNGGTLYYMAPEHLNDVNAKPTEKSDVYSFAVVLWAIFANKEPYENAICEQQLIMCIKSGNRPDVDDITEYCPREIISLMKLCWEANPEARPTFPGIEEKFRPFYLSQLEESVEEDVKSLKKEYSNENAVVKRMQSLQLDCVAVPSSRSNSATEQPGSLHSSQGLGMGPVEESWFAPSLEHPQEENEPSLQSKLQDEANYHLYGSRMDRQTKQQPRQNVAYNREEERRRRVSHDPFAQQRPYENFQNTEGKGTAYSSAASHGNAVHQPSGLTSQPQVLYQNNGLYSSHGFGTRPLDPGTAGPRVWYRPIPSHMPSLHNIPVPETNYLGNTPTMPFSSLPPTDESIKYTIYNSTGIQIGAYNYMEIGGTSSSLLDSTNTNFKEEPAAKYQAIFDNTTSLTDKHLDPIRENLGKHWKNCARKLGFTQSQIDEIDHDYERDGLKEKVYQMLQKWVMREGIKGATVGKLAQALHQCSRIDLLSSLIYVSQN
From the text: (§1) We assessed the selectivity of members of this scaffold using the KINOMEscan methodology across a near comprehensive panel of 442 kinases [[18,27]].

panel of 442 kinases [2] = target: T2, panel of 442 kinases (Homo sapiens, UniProt Q9BXA7); assay type: binding; conditions: kinase TSSK1B; compound concentration 10 µM
T2 construct: purchased KINOMEscan
T2 sequence (Q9BXA7 1-367): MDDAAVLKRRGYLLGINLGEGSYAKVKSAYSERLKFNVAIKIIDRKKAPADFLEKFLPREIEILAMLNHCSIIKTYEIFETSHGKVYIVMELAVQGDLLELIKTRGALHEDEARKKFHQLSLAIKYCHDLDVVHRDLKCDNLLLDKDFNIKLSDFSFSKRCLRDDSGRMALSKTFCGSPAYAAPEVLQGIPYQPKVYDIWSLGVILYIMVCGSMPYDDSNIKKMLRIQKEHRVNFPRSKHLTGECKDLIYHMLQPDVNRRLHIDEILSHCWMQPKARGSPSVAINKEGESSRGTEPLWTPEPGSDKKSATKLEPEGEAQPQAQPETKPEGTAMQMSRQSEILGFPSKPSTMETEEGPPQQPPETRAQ
From the text: as §1

SMILES | KINOMEscan: RIPK1 (panel of 442 kinases [1]) | % Ctrl, TSSK1B (panel of 442 kinases [2]) [% Ctrl]
COc1cc(C(=O)N2CCC(N3CCN(C)CC3)CC2)ccc1Nc1ncc2c(n1)N(C)c1ccccc1C(=O)N2C [15 (LRRK2-IN-1)] | 99 | 60
CCOc1cc(C(=O)N2CCC(N3CCN(C)CC3)CC2)ccc1Nc1ncc2c(n1)N(C1CCCC1)c1ccccc1C(=O)N2C [Compound 26] | 100 | 100
COc1cc(C(=O)N2CCC(N3CCN(C)CC3)CC2)ccc1Nc1ncc2c(n1)N1CCc3cccc(c31)C(=O)N2C [Compound 24] | 76 | 61
COc1cc(C(=O)N2CCC(N3CCN(C)CC3)CC2)ccc1Nc1ncc2c(n1)N(C1CCCC1)c1ccccc1C(=O)N2C [Compound 25, 11-cyclopentyl-2-((2-methoxy-4-(4-(4-methylpiperazin-1-yl)piperidine-1-carbonyl)phenyl)amino)-5-methyl-5H-benzo[e]pyrimido[5,4-b][1,4]diazepin-6(11H)-one] | 100 | 90

Reference: PMC3914206
